Experimental data published in PubChem BioAssay (NCI).
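Assay format: 96-well plates, 48-hour exposure. GI50 marks 50% less growth. TGI denotes the concentration required for complete inhibition of growth.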

Key:
Experiment in all cases: NCI anticancer screen, dose series, 48 h
ACHN renal = tested on: ACHN renal
DU-145 prostate = tested on: DU-145 prostate
EKVX NSCLC = tested on: EKVX NSCLC
HL-60(TB) leukemia = tested on: HL-60(TB) leukemia
HOP-92 NSCLC = tested on: HOP-92 NSCLC
HT29 colon = tested on: HT29 colon
K-562 leukemia = tested on: K-562 leukemia
M14 melanoma = tested on: M14 melanoma
MALME-3M melanoma = tested on: MALME-3M melanoma
MOLT-4 leukemia = tested on: MOLT-4 leukemia
NCI-H460 lung = tested on: NCI-H460 lung
OVCAR-8 ovarian = tested on: OVCAR-8 ovarian
RPMI-8226 leukemia = tested on: RPMI-8226 leukemia
SF-295 CNS = tested on: SF-295 CNS
SNB-19 CNS = tested on: SNB-19 CNS
SW-620 colon = tested on: SW-620 colon
T-47D breast = tested on: T-47D breast
U251 CNS = tested on: U251 CNS

Compound | TGI (ACHN renal) [µM] | TGI (DU-145 prostate) [µM] | TGI (EKVX NSCLC) [µM] | TGI (HL-60(TB) leukemia) [µM] | TGI (HOP-92 NSCLC) [µM] | TGI (HT29 colon) [µM] | TGI (K-562 leukemia) [µM] | TGI (M14 melanoma) [µM] | TGI (MALME-3M melanoma) [µM] | GI50 (MOLT-4 leukemia) [µM] | TGI (MOLT-4 leukemia) [µM] | TGI (NCI-H460 lung) [µM] | TGI (OVCAR-8 ovarian) [µM] | TGI (RPMI-8226 leukemia) [µM] | TGI (SF-295 CNS) [µM] | TGI (SNB-19 CNS) [µM] | TGI (SW-620 colon) [µM] | TGI (T-47D breast) [µM] | TGI (U251 CNS) [µM]
C[C@@H](Oc1ccc(Oc2cnc3ccc(Cl)cc3n2)cc1)C(=O)O | > 100 | > 100 | > 100 | > 100 | > 100 | > 100 | > 100 | > 100 | > 100 | > 23.7 | > 100 | > 100 | > 100 | > 100 | > 100 | > 100 | > 100 | > 100 | > 100
Cc1nn(C(=O)c2ccc(Cl)cc2)c2c1C(c1ccccc1O)SC(N)=N2 (stereo unspecified) | > 10 | > 10 | > 10 | > 10 | > 10 | > 10 | > 10 | > 10 | > 10 |  | > 10 | > 10 | > 10 | > 10 | > 10 | > 10 | > 10 | > 10 | > 10
Cc1cc(O)c2c(c1)C(C1OC(CO)C(O)C(O)C1O)c1cc(O)cc(O)c1C2=O (stereo unspecified) | > 100 | > 100 | > 100 | > 100 | > 100 | > 100 | > 100 | > 100 | > 100 |  | > 100 | > 100 | > 100 | > 100 | > 100 | > 100 | > 100 | > 100 | > 100
CCOC(CN(C)C(=O)Nc1ccc(Cl)c(Cl)c1)OCC | > 10 | > 10 | > 10 | > 10 | > 10 | > 10 | > 10 | > 10 | > 10 |  | > 10 | > 10 | > 10 | > 10 | > 10 | > 10 | > 10 | > 10 | > 10
Clc1cc2nc(C3CCCCO3)[nH]c2cc1Cl (stereo unspecified) | > 100 | > 100 | > 100 | > 53.5 | > 100 | 25.8 | > 100 | > 100 | > 100 |  | > 100 | > 100 | > 73 | > 73.4 | > 100 | > 100 | > 100 | > 93.9 | > 96.7
CCOc1cc(/C=N/c2nc3cc4sc(/N=C/c5ccc(O)c(OCC)c5)nc4cc3s2)ccc1O | > 100 | > 100 | > 100 | 19.9 | > 100 | > 100 | > 100 | > 100 | > 100 |  | > 100 | > 100 | > 100 | > 100 | > 100 | > 100 | > 100 | > 100 | > 100
O=C(CCc1ccc(O)c(O)c1)NCCc1ccccc1 | > 100 | > 100 | > 100 | 34 | > 100 | > 72.2 | 49.6 | > 100 | > 100 |  | > 100 | > 100 | > 100 | > 76.1 | > 100 | > 100 | > 100 | > 100 | > 100
O=C(c1cc(Cl)cc(Cl)c1)N(Cc1cccnc1)C(=S)N(Cc1cccnc1)C(=O)c1cc(Cl)cc(Cl)c1 | 47.3 | > 100 | > 100 | 90 | > 100 | > 100 | > 100 | 72 | > 100 |  | > 100 | > 100 | 79.5 | > 100 | > 100 | > 100 | > 100 | > 100 | 61.3
OCC(O)C(O)C(O)C(O)CNCCO/N=C1/C(c2c(O)[nH]c3ccccc23)=Nc2ccccc21 (stereo unspecified) | > 50 | > 50 | > 50 | 37.9 | 26.9 | > 50 | 44.4 | > 50 | 27.7 |  | 36.3 | > 50 | > 50 | > 50 | > 50 | 35.9 | > 50 | 22.5 | 39.8
N#Cc1sc2c(c1OC(=O)c1ccc(Cl)cc1)c(=O)n(-c1ccccc1)c(=S)n2-c1ccccc1 | 86.8 | > 100 | 49.2 | 46.6 | 66.7 | 76.3 | > 100 | 50.8 | 54.4 |  | 68.7 | 33.3 | 67.1 | 45.3 | 65.9 | 61.4 | 46.9 | > 100 | 38.6
CN1C(=O)N/C(=C\c2ccc(S(=O)(=O)N/N=C/c3ccccc3)cc2)C1=O | > 100 | > 100 | > 100 | > 100 | 75.5 | > 100 | > 100 | > 100 | > 100 |  | 83.7 | 34.4 | > 100 | > 100 | > 100 | > 100 | > 100 | > 100 | > 100
COc1ccc2nc3cc([N+](=O)[O-])ccc3c(NNc3ccc([N+](=O)[O-])cc3)c2c1 | > 100 | > 100 | > 100 | 54.2 | 67.7 | > 63.9 | > 100 | > 100 | > 92.5 |  | > 100 | > 59.7 | > 100 | > 71.5 | > 100 | > 76.8 | > 64.7 | > 100 | > 93.7
O=C(NC1CCN(Cc2ccccc2)CC1)c1cccc(I)c1 | > 100 | > 100 | > 100 | > 100 | 62.7 | 43.7 | > 100 | 30.9 | 32.5 |  | > 100 | 63.7 | > 100 | 69.2 | 33.8 | > 100 | 30.9 | 61 | 56.2
COC(=O)[C@H](C)NC(=O)C1(CNC(=O)[C@H](C)NC(=O)OC(C)(C)C)Cc2ccccc2-c2ccccc2C1 | > 57.7 | > 42.7 | 47 | 39.5 | 21.2 | 39.8 | 54 | > 78.5 | 36.1 |  | 37.6 | 42.9 | 18.2 | 23.9 | 51.6 | > 100 | > 64.3 | > 62 | 36.5
CC1(C)CCCC2CC2CCC(C)(C)C1=O (stereo unspecified) | > 100 | > 100 | > 100 | 41.2 | > 100 | > 100 | 40.1 | > 100 | > 100 |  | 83.1 | > 100 | > 100 | 68.1 | > 100 | > 100 | > 100 | > 100 | 37.3
CCOC(=O)NC(Nc1ccc(S(=O)(=O)Nc2ccc(OC)nn2)cc1)(C(F)(F)F)C(F)(F)F | 90.7 | > 100 | > 100 | 58.2 | 73.2 | > 100 | > 100 | 50.4 | 40.2 |  | 49.5 | > 100 | > 100 | 54.8 | > 100 | > 100 | > 100 | > 100 | 41
CC1=NNC(=O)C1C1CC(c2c[nH]c3ccccc23)=NN(c2ccccc2)C1=O (stereo unspecified) | > 100 | > 100 | > 100 | 92.4 | > 100 | > 100 | > 100 | > 100 | > 100 |  | > 100 | > 100 | > 100 | > 100 | > 100 | > 100 | > 100 | > 100 | > 100
O=C1C(Cl)=C(N2CCN(CCOCCO)CC2)C(=O)c2ccccc21 | 19.5 | 34 | 32.3 | 14 | 2.89 | 30 | > 21.7 | 22.6 | 15.2 |  | 5.99 | 32.8 | 28.2 | > 26.9 | 32 | > 56.3 | 3.09 | 3.34 | 31
Brc1c2c(c(Br)c3nsnc13)N=S=N2 | 72.2 | > 100 | > 74 | 12.3 | 44.8 | > 60.4 | 33.3 | 50.5 | > 72.6 |  | 68.9 | > 69.3 | 79.7 | 78.1 | > 70.8 | > 70 | > 68.5 | > 66.6 | 46.7
Cc1n[nH]c(=O)n1Nc1ccccc1 | > 100 | > 100 | > 100 | > 100 | > 100 | > 100 | > 100 | > 100 | > 100 |  | > 100 | > 100 | > 100 | > 100 | > 100 | > 100 | > 100 | > 100 | > 100
O=C(NNC(=S)Nc1ccc(Cl)cc1)C12CC3CC(CC(C3)C1)C2 | 29 | 43.6 | 55 | 5.48 | 56.7 | 21.4 | > 37.9 | 26.6 | 47.4 |  | 10.7 | 24.5 | > 44.6 | 2.28 | 26.6 | > 79.2 | 35.6 | 41.4 | 24.8
Cc1cn(CC2=NC3CCCCC3N2)c(=O)[nH]c1=O (stereo unspecified) | > 100 | > 100 | > 100 | > 100 | > 100 | > 100 | > 100 | > 100 | > 100 |  | > 100 | > 100 | > 100 | > 100 | > 100 | > 100 | > 100 | > 100 | > 100
O=C(CC(Cc1ccccc1)c1ccc(Oc2ccccc2)cc1)Nc1cccc(Cl)c1 (stereo unspecified) | 27.1 | > 100 | > 100 | 10.2 | 5.51 | > 100 | > 100 | > 100 | > 100 |  | 39.3 | > 100 | > 100 | 17.3 | 15.4 | > 100 | > 100 | 8.49 | > 100
O=C1C=CC(=O)c2c(O)c(NCCO)c(Cl)c(O)c21 | > 10 | 4.98 | > 10 | 5.95 | > 10 | 7.43 | 8.23 | 4.78 | 2.71 |  | > 10 | 8.68 | > 10 | > 10 | 4.81 | > 10 | 5.11 | > 7.77 | > 10
CC(C)(C)C(O)CC(O)(C(F)(F)F)C(F)(F)F (stereo unspecified) | > 100 | > 100 | > 100 | > 100 | > 100 | > 100 | > 100 | > 100 | > 100 |  | > 100 | > 100 | > 100 | > 100 | > 100 | > 100 | > 100 | > 100 | > 100
